Test results reported in ChEMBL document CHEMBL6127064, “Discovery of GNE-6893, a Potent, Selective, Orally Bioavailable Small Molecule Inhibitor of HPK1” (ACS Med Chem Lett, 2024).
Converted amounts (≈) assume the structure as drawn.

Experiments:
[1] = Inhibition of human full length HPK1-T165E/S171E mutant expressed in baculovirus expression system assessed as inhibition of SLP76 phosphorylation using biotinylated SLP76 as substrate preincubated for 30 mins followed by incubation with substrate in presence of ATP and measured for 60 mins by HTRF assay
[2] = target: T1, Mitogen-activated protein kinase kinase kinase kinase 1 (Homo sapiens, UniProt Q92918); experiment: Inhibition of HPK1 in primary human Pan T cells assessed as increase in IL-2 secretion pretreated for 30 mins followed by incubation with anti-CD3/anti-CD28 and measured after 4 hrs by MSD assay relative to control; assay type: cell-based; details: T cell, time 4.5 hrs
Target sequence in this assay (Q92918 whole entry, looked up): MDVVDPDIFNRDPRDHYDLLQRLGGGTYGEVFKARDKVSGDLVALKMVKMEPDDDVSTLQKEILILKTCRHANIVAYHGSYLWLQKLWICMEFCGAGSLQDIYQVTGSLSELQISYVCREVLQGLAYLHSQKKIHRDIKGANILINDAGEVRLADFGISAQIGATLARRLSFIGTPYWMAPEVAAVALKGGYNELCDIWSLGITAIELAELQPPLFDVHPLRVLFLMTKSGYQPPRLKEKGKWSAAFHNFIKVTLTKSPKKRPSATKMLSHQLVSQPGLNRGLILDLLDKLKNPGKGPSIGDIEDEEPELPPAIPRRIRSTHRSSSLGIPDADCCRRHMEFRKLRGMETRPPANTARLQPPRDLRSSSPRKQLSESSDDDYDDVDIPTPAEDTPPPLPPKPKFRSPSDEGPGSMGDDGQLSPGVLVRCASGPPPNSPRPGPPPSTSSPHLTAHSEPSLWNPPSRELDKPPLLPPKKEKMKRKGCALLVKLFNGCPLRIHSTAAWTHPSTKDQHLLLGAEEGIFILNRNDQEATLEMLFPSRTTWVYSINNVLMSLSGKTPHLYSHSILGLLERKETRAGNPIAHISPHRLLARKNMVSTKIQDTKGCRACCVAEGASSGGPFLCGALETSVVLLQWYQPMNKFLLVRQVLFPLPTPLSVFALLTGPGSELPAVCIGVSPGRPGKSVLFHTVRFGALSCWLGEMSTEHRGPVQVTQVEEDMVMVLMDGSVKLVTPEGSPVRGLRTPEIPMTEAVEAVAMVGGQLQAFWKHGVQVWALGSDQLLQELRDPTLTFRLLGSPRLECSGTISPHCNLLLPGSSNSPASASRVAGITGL

[3] = Clearance in Sprague-Dawley rat at 0.5 mg/kg, iv measured for 8 hrs by LC-MS/MS analysis; assay type: ADME, organism-based; details: in vivo
[4] = Half life in Sprague-Dawley rat at 0.5 mg/kg, iv measured for 8 hrs by LC-MS/MS analysis; assay type: ADME, organism-based; details: in vivo
[5] = Oral bioavailability in Sprague-Dawley rat; assay type: ADME, organism-based; details: in vivo
[6] = Apparent permeability of the compound across apical to basolateral side in dog MDCK1 cells at 10 uM by LC-MS/MS analysis; assay type: ADME, cell-based, Canis lupus familiaris; details: MDCK
[7] = Volume of distribution at steady state in Sprague-Dawley rat at 0.5 mg/kg, iv measured for 8 hrs by LC-MS/MS analysis; assay type: ADME, organism-based; details: in vivo, read-out: Vdss
[8] = Half life in C57BL/6 mouse at 25 mg/kg, po or 1 mg/kg, iv measured for 24 hrs by LC-MS/MS analysis; assay type: ADME, organism-based; details: in vivo
[9] = Kinetic solubility of the compound in PBS at pH 7.4; assay type: physicochemical; details: read-out: Kinetic_solubility
[10] = Volume of distribution at steady state in C57BL/6 mouse at 25 mg/kg, po or 1 mg/kg, iv measured for 24 hrs by LC-MS/MS analysis; assay type: ADME, organism-based; details: in vivo
[11] = target: T1, Mitogen-activated protein kinase kinase kinase kinase 1; experiment: Inhibition of HPK1 in primary human Pan T cells assessed as increase in IL-2 secretion pretreated for 30 mins followed by incubation with anti-CD3/anti-CD28 and measured after 4 hrs by MSD assay; assay type: cell-based, T cell
Target sequence in this assay (Q92918 whole entry): as the sequence (Q92918 whole entry, looked up) above

[12] = Oral bioavailability in C57BL/6 mouse at 25 mg/kg measured for 24 hrs by LC-MS/MS analysis; assay type: ADME, organism-based; details: C57BL/6, mouse, in vivo
[13] = target: T1, Mitogen-activated protein kinase kinase kinase kinase 1; experiment: Inhibition of HPK1 in human Jurkat cells assessed as inhibition of anti-CD3/anti-CD28-induced SLP76 phosporylation at Ser376 residue incubated for 30 mins by ELISA; assay type: cell-based
Target sequence in this assay (Q92918 whole entry): as the sequence (Q92918 whole entry, looked up) above

SMILES | Ki [1] | fold change (FC) [2] | clearance [3] | half-life [4] | bioavailability [5] | Papp A→B at 10 µM [6] | Vd [7] | half-life [8] | solubility kinetic [9] | Vdss [10] | EC50 [11] | bioavailability [12] | IC50 [13]
Cc1ccncc1-c1cc(N)c2cnc(NC(=O)[C@@H]3C[C@H]3C#N)cc2c1 | 4.9 nM | 5 |  |  |  |  |  |  |  |  |  |  | 
Cc1ccncc1-c1cc2cc(Nc3cnn([C@@H](C)C#N)c3)ncc2c(N)c1F | 32 nM |  |  |  |  |  |  |  |  |  |  |  | 
Cc1c(N)cncc1-c1cc2cc(NC(=O)OC3CCOCC3)ncc2c(N)c1F | 0.498 nM |  | 38 mL/min/kg | 72 min | 94% | 15 ×10⁻⁶ cm/s | 3.2 L/kg | 78 min | 13 µM (≈ 5.35 µg/mL) | 1.7 L/kg |  |  | 
Cc1c(-c2cc3cc(NC(=O)OC4CCOCC4)ncc3c(N)c2F)cnc2c1NCCO2 | < 0.019 nM |  | 17 mL/min/kg | 90 min | 16% | 18 ×10⁻⁶ cm/s | 1.5 L/kg | 66 min | 1.5 µM (≈ 0.68 µg/mL) | 1.3 L/kg | 39 nM | 31% | 97 nM
